# Test results as given in patent US20220264878A1, “HERBICIDAL COMPOSITION CONTAINING R-TYPE PYRIDYLOXY CARBOXYLIC ACID DERIVATIVE AND USE THEREOF” (Qingdao Kingagroot Chemical Compound Co., Ltd., priority 2019, published 2022).
# How the values were obtained:
# Assay in all cases: Post-emergence foliage spray, pot culture, fresh weight inhibition (Tables 1-48, 51-98, 101-148; 24 days)
# Assay type in all cases: in vivo
# Abutilon theophrasti = tested on: Abutilon theophrasti
# Outline: (§1)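 Greenhouse pot-grown weeds (15 per pot, 3 pots, 4 replicates) at the 5–6-leaf (grasses) or 6–7-leaf (broadleaf) stage were sprayed once on foliage at 450 kg/ha spray volume, 0.3 MPa. Acetone solutions were diluted in 0.1% Tween-80. Aboveground fresh weight versus blank control was recorded after 24 days.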
# Capsella bursa-pastoris = tested on: Capsella bursa-pastoris
# Outline: as §1
# Ludwigia prostrate = tested on: Ludwigia prostrate
# Outline: as §1
# Alopecurus japonicus = tested on: Alopecurus japonicus
# Outline: as §1
# Eleusine indica = tested on: Eleusine indica
# Outline: as §1
# Amaranthus retroflexus = tested on: Amaranthus retroflexus
# Outline: as §1
# Setaria viridis = details: A = A2 alone, g a.i./ha: r10 60, r11 60, r12 30, r13 30
# Outline: as §1
# Eclipta prostrate = details: fresh weight inhibition after 24 days
# Outline: as §1
# Conyza Canadensis = tested on: Conyza Canadensis
# Outline: as §1
compound,measurement,setting,value
C[C@@H](Oc1nc(F)c(Cl)c(N)c1Cl)C(=O)O [Compound A1],Control effect (%) of A applied alone in corresponding dose,Abutilon theophrasti; A1 7.5 g a.i./ha,44.3%
same,Control effect (%) of A applied alone in corresponding dose,Abutilon theophrasti; A1 15 g a.i./ha,79.6%
same,Control effect (%) of A applied alone in corresponding dose,Capsella bursa-pastoris; A1 7.5 g a.i./ha,36.2%
same,Control effect (%) of A applied alone in corresponding dose,Capsella bursa-pastoris; A1 15 g a.i./ha,75.9%
same,Control effect (%) of A applied alone in corresponding dose,Ludwigia prostrate; A1 75 g a.i./ha,34.3%
same,Control effect (%) of A applied alone in corresponding dose,Ludwigia prostrate; A1 150 g a.i./ha,72.4%
same,Control effect (%) of A applied alone in corresponding dose,Alopecurus japonicus; A1 7.5 g a.i./ha,25.6%
same,Control effect (%) of A applied alone in corresponding dose,Alopecurus japonicus; A1 15 g a.i./ha,48.1%
same,Control effect (%) of A applied alone in corresponding dose,Alopecurus japonicus; A1 75 g a.i./ha,25.6%
same,Control effect (%) of A applied alone in corresponding dose,Alopecurus japonicus; A1 150 g a.i./ha,48.1%
same,Control effect (%) of A applied alone in corresponding dose,"Eleusine indica; Table 79, 75 g a.i./ha",24.4%
same,Control effect (%) of A applied alone in corresponding dose,"Eleusine indica; Table 79, 150 g a.i./ha",52.2%
same,Control effect (%) of A applied alone in corresponding dose,"Eleusine indica; Table 82, 75 g a.i./ha",24.4%
same,Control effect (%) of A applied alone in corresponding dose,"Eleusine indica; Table 82, 150 g a.i./ha",52.2%
same,Control effect (%) of A applied alone in corresponding dose,"Eleusine indica; Table 83, 75 g a.i./ha",24.4%
same,Control effect (%) of A applied alone in corresponding dose,"Eleusine indica; Table 83, 150 g a.i./ha",52.2%
C[C@@H](Oc1nc(F)c(Cl)c(N)c1Cl)C(=O)OCC1CCCO1 (stereo partly drawn) [Compound A2],Control effect (%) of A applied alone in corresponding dose,Amaranthus retroflexus; A2 75 g a.i./ha,22.9%
same,Control effect (%) of A applied alone in corresponding dose,Amaranthus retroflexus; A2 150 g a.i./ha,52.4%
same,Control effect (%) of A applied alone in corresponding dose,Setaria viridis; A2 alone at 30 g a.i./ha,32.7%
same,Control effect (%) of A applied alone in corresponding dose,Setaria viridis; A2 alone at 60 g a.i./ha,56.3%
same,Control effect (%) of A applied alone in corresponding dose,Eclipta prostrate; A 75 g a.i/ha,32.3%
same,Control effect (%) of A applied alone in corresponding dose,Eclipta prostrate; A 150 g a.i/ha,68.4%
same,Control effect (%) of A applied alone in corresponding dose,Conyza Canadensis; A2 75 g a.i./ha,36.7%
same,Control effect (%) of A applied alone in corresponding dose,Conyza Canadensis; A2 150 g a.i./ha,57.2%
